Results as given in the supplement of paper PMC10307832.

What was measured:
Assay in all cases: relative viability (nuclei count vs DMSO), 5 days (fraction); higher = more cells survive
VE-821 + Alpelisib = compound: CS(=O)(=O)c1ccc(-c2cnc(N)c(C(=O)Nc3ccccc3)n2)cc1 [VE-821] + Cc1nc(NC(=O)N2CCC[C@H]2C(N)=O)sc1-c1ccnc(C(C)(C)C(F)(F)F)c1 [Alpelisib] (partner 2 µM)
Procedure, shortened: (§1)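 Values are medians from duplicate plates. Each reflects relative viability, defined as the nuclei count of treated wells over that of vehicle wells. Lung cancer cell lines in 1536-well plates were pin-tool dosed one day after seeding with one drug alone or with a fixed anchor-drug dose plus five library-drug doses (not always all listed) in √10 steps, then fixed, stained and imaged at 4× after 5 days.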

Vismodegib + Decitabine = compound: CS(=O)(=O)c1ccc(C(=O)Nc2ccc(Cl)c(-c3ccccn3)c2)c(Cl)c1 [Vismodegib] + Nc1ncn([C@H]2C[C@H](O)[C@@H](CO)O2)c(=O)n1 [Decitabine] (partner 2 µM)
Procedure, shortened: as §1

Ruxolitinib + Pictilisib = compound: N#CC[C@H](C1CCCC1)n1cc(-c2ncnc3[nH]ccc23)cn1 [Ruxolitinib] + CS(=O)(=O)N1CCN(Cc2cc3nc(-c4cccc5[nH]ncc45)nc(N4CCOCC4)c3s2)CC1 [Pictilisib] (partner 1 µM)
Procedure, shortened: as §1

Ruxolitinib + Phenformin = compound: N#CC[C@H](C1CCCC1)n1cc(-c2ncnc3[nH]ccc23)cn1 [Ruxolitinib] + N=C(N)NC(=N)NCCc1ccccc1 [Phenformin] (partner 250 µM)
Procedure, shortened: as §1

Cell Line	relative viability (VE-821 + Alpelisib; first compound 0.08 µM)	relative viability (VE-821 + Alpelisib; first compound 0.253 µM)	relative viability (VE-821 + Alpelisib; first compound 0.8 µM)	relative viability (VE-821 + Alpelisib; first compound 2.53 µM)	relative viability (VE-821 + Alpelisib; first compound 8 µM)	relative viability (Vismodegib + Decitabine; first compound 0.08 µM)	relative viability (Vismodegib + Decitabine; first compound 0.8 µM)	relative viability (Vismodegib + Decitabine; first compound 2.53 µM)	relative viability (Vismodegib + Decitabine; first compound 8 µM)	relative viability (Ruxolitinib + Pictilisib; first compound 0.08 µM)	relative viability (Ruxolitinib + Pictilisib; first compound 0.253 µM)	relative viability (Ruxolitinib + Pictilisib; first compound 0.8 µM)	relative viability (Ruxolitinib + Pictilisib; first compound 2.53 µM)	relative viability (Ruxolitinib + Pictilisib; first compound 8 µM)	relative viability (Ruxolitinib + Phenformin; first compound 0.08 µM)	relative viability (Ruxolitinib + Phenformin; first compound 0.253 µM)	relative viability (Ruxolitinib + Phenformin; first compound 0.8 µM)	relative viability (Ruxolitinib + Phenformin; first compound 2.53 µM)	relative viability (Ruxolitinib + Phenformin; first compound 8 µM)	relative viability (Vismodegib + Decitabine; first compound 0.253 µM)
NCI-H441	0.902	0.801	0.682	0.672	0.744	0.23	0.235	0.211	0.238	0.44	0.497	0.533	0.445	0.39	0.769	0.743	1.13	0.688	0.651	–
NCI-H1437	1.02	0.901	0.693	0.993	0.705	0.587	0.606	0.554	0.501	0.533	0.351	0.43	0.429	0.397	0.341	0.287	0.29	0.275	0.271	0.533
EPLC-272H	0.998	0.858	0.694	1.23	0.807	0.375	0.358	0.362	0.341	0.141	0.36	0.336	0.281	0.268	0.297	0.323	0.306	0.278	0.269	0.358
LOU-NH91	0.747	0.738	0.66	0.75	0.702	0.796	0.84	0.819	0.81	0.477	0.493	0.524	0.514	0.56	–	0.708	0.765	0.63	0.747	0.806
ABC-1	1.21	0.854	0.91	1.03	0.904	1.06	0.999	1.2	1.01	0.875	0.742	0.867	0.705	0.738	–	0.282	0.316	0.287	0.294	1.01
RERF-LC-KJ	0.898	0.774	0.664	0.799	0.712	0.704	0.765	0.654	0.633	0.517	0.447	0.656	0.53	0.393	0.349	0.418	0.426	0.42	0.332	0.7
NCI-H1975	0.621	0.598	0.46	0.534	0.406	0.386	0.396	0.414	0.404	0.302	0.254	0.285	0.243	0.231	0.43	0.394	0.423	0.384	0.269	0.444
SK-MES-1	1.03	0.847	0.776	0.954	0.866	0.401	0.435	0.374	0.443	0.268	0.337	0.359	0.394	0.335	0.708	0.641	0.663	0.593	0.495	0.341
NCI-H2170	0.979	0.808	0.624	0.777	0.543	0.489	0.455	0.463	0.467	0.36	0.28	0.418	0.303	0.253	0.382	0.391	0.417	0.374	0.351	0.477
NCI-H661	0.693	0.705	0.573	0.765	0.559	0.47	0.549	0.575	0.577	0.41	0.322	0.379	–	0.465	0.287	0.256	0.303	0.29	0.263	0.528
HOP-62	1.09	0.646	0.723	0.928	0.93	0.227	0.208	0.22	0.183	–	0.743	0.876	0.63	0.839	0.678	0.629	0.699	0.668	0.63	0.22
HCC-15	0.976	0.923	1.01	0.999	0.961	0.635	0.687	0.668	0.576	0.701	0.77	0.789	0.703	0.737	0.423	0.444	0.494	0.393	0.399	0.659
A-427	1.01	1.03	1.08	1.12	0.706	0.515	0.546	0.499	0.582	0.742	0.749	0.773	0.371	0.629	0.291	0.3	0.338	0.281	0.276	0.569
